Results from US20170002011A1, “BENZENE SULFONAMIDES AS CCR9 INHIBITORS” (NORGINE B.V., priority 2013, published 2017).

Tests used:
CCR9 [1] = biological target: T1, CCR9 (Homo sapiens, UniProt P51686); assay: FLIPR calcium flux assay using MOLT4 cells (TECK stimulation); format: cell-based; design: endogenous in cells; host or cells: MOLT4 (human T-cell line); details: MOLT4 cells (a human T-cell line); Ki determined from IC50 of TECK-induced intracellular calcium increase
T1 sequence (P51686 1-369): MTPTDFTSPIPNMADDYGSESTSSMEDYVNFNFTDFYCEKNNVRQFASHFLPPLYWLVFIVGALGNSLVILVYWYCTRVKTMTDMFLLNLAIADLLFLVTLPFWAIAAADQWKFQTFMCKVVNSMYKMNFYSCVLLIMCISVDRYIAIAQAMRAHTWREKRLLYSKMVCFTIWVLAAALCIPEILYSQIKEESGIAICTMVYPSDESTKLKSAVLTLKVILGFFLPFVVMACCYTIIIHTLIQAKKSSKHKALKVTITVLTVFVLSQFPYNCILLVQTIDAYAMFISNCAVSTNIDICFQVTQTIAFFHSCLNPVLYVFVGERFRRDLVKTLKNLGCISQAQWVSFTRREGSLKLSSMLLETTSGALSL
Experimental: Biological Activity: FLIPR Assay Using MOLT4 Cells
A calcium flux assay was used to determine the ability of the compounds to interfere with the binding between CCR9 and its chemokine ligand (TECK) in MOLT4 cells (a human T-cell line). MOLT4 cells were seeded (100,000 cells/well) in coming cell culture plates (Cat #3603) in assay buffer (lx HBSS, 20 mM HEPES) containing 2.5 mM Probenecid. The plate was centrifuged at 1200 rpm for 3 minutes and incubated at 37° C./5% CO2 for 2 hours. A 0.3× Fluo-4 NW calcium dye was prepared in assay buffer containing 5 mM Probenecid and stored in the dark. Each well was loaded with 25 μL of 0.3× Fluo-4 NW calcium dye and incubated at 37 C/5% CO2 for 60 minutes and then at room temperature for 30 minutes. A half-log serially diluted concentration response curve was prepared at a 4× concentration for each (10 μM-0.1 nM final assay concentration) and 25 μL of the compound then transferred to the cells (100 μL final volume) for 60 minutes prior to stimulation (30 minutes at 37° C./5% CO2 and 30 minutes at room temperature). TECK was diluted to 5× its EC50 in assay buffer (containing 0.1% [w/v] bovine serum albumin [BSA]) and 25 μL dispensed through the FLIPR instrument to stimulate the cells (125 μL final volume). The increased in intracellular calcium levels was measured with the FLIPR instrument. The potency of the compound as CCR9 antagonist was calculated as an IC50 using GraphPad Prism software (variable slope four parameter). The Ki of the compound was determined from the IC50 values using the following equation.
(§1) Ki calculation: IC50/1+(Agonist (TECK) conc. used in assay/EC50 of agonist (TECK) generated on day of experiment)

CCR9 [2] = biological target: T1, CCR9; assay: FLIPR calcium flux assay using hCCR9 over expressed cells (TECK stimulation); format: cell-based; design: expressed in transfected cells; host or cells: Chem-1 cells overexpressing hCCR9; details: Chem1-hCCR9 overexpressing cells; Ki determined from IC50 of TECK-induced intracellular calcium increase
Experimental: Biological Activity: FLIPR Assay Using hCCR9 Over Expressed Cells
A calcium flux assay was used to determine the ability of the compounds to interfere with the binding between CCR9 and its chemokine ligand (TECK) in Cheml-hCCR9 overexpressing cells. hCCR9 overexpressing cells were seeded (25,000 cells/well) into black Poly-D-Lysine coated clear bottom 96-well plates (BD Biosciences, Cat #356640) and incubated overnight at 37° C./5% CO2 in a humidified incubator. Media was aspirated and cells washed twice with 100 μL assay buffer (1×HBSS, 20 mM HEPES) containing 2.5 mM Probenecid. A 0.3× Fluo-4 NW calcium dye was prepared in assay buffer containing 5 mM Probenecid and stored in the dark. Each well was loaded with 100 μL of 0.3× Fluo-4 NW calcium dye and incubated at 37° C./5% CO2 for 60 minutes and then at room temperature for 30 minutes. A half-log serially diluted concentration response curve was prepared at a 3× final assay concentration for each compound (10 μM−0.1 nM final assay concentration) and 50 μL of the compound then transferred to the cells (150 μL final volume) for 60 minutes prior to stimulation (30 minutes at 37° C./5% CO2 and 30 minutes at room temperature). TECK was diluted to 4× its ECso in assay buffer (containing 0.1% [w/v] bovine serum albumin[BSA]) and 50 μL dispensed through the fluorometric imaging plate reader (FLIPR) instrument to stimulate the cells (200 μL final volume). The increase in intracellular calcium levels was measured with the FLIPR instrument. The potency of the compound as a CCR9 antagonist was calculated as an IC50 using GraphPad Prism software (variable slope four parameter). The Ki of the compound was determined from the IC50 values using the following equation.
as §1

Ki (CCR9 [1]) [µM]	Ki (CCR9 [2]) [µM]	SMILES
0.037	0.121	Cc1ncccc1-c1cc2c(C#N)ccc(NS(=O)(=O)c3ccc(C(C)(C)C)cc3)n2n1 [Compound 204]
0.064	0.128	Cc1ccc(-c2cc3c(C#N)ccc(NS(=O)(=O)c4ccc(C(C)(C)C)cc4)n3n2)cn1 [Compound 206]
